These results are taken from patent US9839632B2, “Methods and compositions using 4-amino-2-(2,6-dioxo-piperidine-3-yl)-isoindoline-1,3-dione for treatment and management of central nervous system cancers” (CELGENE CORPORATION, priority 2013, dated 2017).

Where two headings read alike, the source gives them in different places.

For data set [1] the following is noted: fasted male CD-IGS rats, cited from earlier work; for F: PO 50 mg/kg vs IV 5 mg/kg.
The subject of data set [2] is human monocyte U937 cells. The data set can be described thus: Phagocytosis assay, human monocyte U937 cells. It counts as cell-based. The settings on record: 3 or 10 ug/ml, 48 hours, P<0.05 vs control. The protocol:
Phagocytosis assay: The impact of 4-amino-2-(2,6-dioxo-piperidine-3-yl)-isoindoline-1,3-dione on the phagocytic activity of macrophages was assessed in primary microglial cells and human monocyte cells (U937). The cells were cultured in complete medium for 4 days. They were then harvested and resuspended in Opti-MEM medium at 10^6 cells/ml and seeded in a 96 well plate at 100,000 viable cells/well. The experimental wells were treated with 4-amino-2-(2,6-dioxo-piperidine-3-yl)-isoindoline-1,3-dione 3 or 10 ug/ml. After 48 hours of treatment, the culture medium was quickly replaced with 100 ul of pHrodo BioParticles suspension (Life technologies and the cells were incubated in the suspension at 37° C. for 2-3 hours. Following incubation, the plates were scanned at 550 nm/600 nm (excitation/emission) using fluorescence plate reader. The fluorescence activity reflects the phagocytic activity of the macrophages. The impact of 4-amino-2-(2,6-dioxo-piperidine-3-yl)-isoindoline-1,3-dione treatment (% effect) was calculated as a fraction of the phagocytic activity in the positive control wells. Wan, C. P.; et al., J. Immunol. Methods, 1993, 162, pp. 1-7.

The test system of data set [3] is primary murine microglia cells cocultured with Raji lymphoma cells. As to the kind of experiment: Polarization of primary murine microglia cocultured with Raji lymphoma cells with or without primary murine NK cells. The settings on record: for M2 polarization of microglia cells (FXIIIA, pSTAT6): coculture with Raji lymphoma cells, without NK cells; for polarization status of microglia cells (iNOS, pSTAT1): triple culture with Raji lymphoma cells and primary murine NK cells, 10 ug/ml 48 hours. Format: cell-based. The method, then: (§1) Treatments: In experiments in which IL-4 was used to induce M2 polarization of macrophages, cells were treated with IL-4 (20 ng/ml) for 48 hours followed by treatment with 4-amino-2-(2,6-dioxo-piperidine-3-yl)-isoindoline-1,3-dione (10 ug/ml) or DMSO control for 48 hours. In triple cell culture experiments with lymphoma cells, macrophages, and NK cells, the treatment was with either DMSO or 4-amino-2-(2,6-dioxo-piperidine-3-yl)-isoindoline-1,3-dione (10 ug/ml) for 48 hours.
(§2) Immunofluorescence for analysis of macrophage polarization in cell culture experiments: Live cells were fixed in 10% formalin for 30 minutes at room temperature followed by permeabilization with PBS-0.2% Triton X-100 for 2 min. After blocking with PBS-5% goat serum-0.02% Triton X-100 for 30 minutes at 37° C., the cells were incubated overnight at 4° C. with rat monoclonal F4/80 antibody (for primary microglia cells, 1:200 Abcam), rat monoclonal CD11b (for U937, 1:200 Biolegend), rabbit polyclonal Ym1 antibody (for primary microglia cells and primary peritoneal macrophages, 1:200, Stemcell Technologies, Vancouver, Canada), rabbit polyclonal FXIII A antibody (for U937, 1:200, Abcam), mouse monoclonal p-STAT1 antibody (1:200, Abcam), rabbit polyclonal p-STAT6 antibody (1:200, Abcam) or rabbit iNOS antibody (1:200, Calbiochem). After washing, cells were incubated with the Alexa Fluor 594 Goat anti-Rat IgG secondary antibody (1:1000, Life Technologies) and FITC Donkey anti-rabbit IgG secondary antibody (1:1000, Life technology) or FITC Goat anti-mouse IgG secondary antibody (1:1000, Sigma) at 37° C. for 45 minutes. Finally, Vectashield H-1200 mounting medium with DAPI (Vector Laboratories) was used to stain the nuclei. Images were obtained on a Zeiss LSM 510 META confocal microscope.

For data set [4], the system named is primary murine microglia cells cocultured with OCI-LY10 lymphoma cells. The data set can be described thus: Polarization of primary murine microglia cocultured with OCI-LY10 lymphoma cells with or without primary murine NK cells. Format: cell-based. The conditions noted are these: for M2 polarization of microglia cells (FXIIIA, pSTAT6): coculture with OCI-LY10 lymphoma cells, without NK cells; for polarization status of microglia cells (iNOS, pSTAT1): triple culture with OCI-LY10 lymphoma cells and primary murine NK cells, 10 ug/ml 48 hours. The method, then:
as §1, §2

The next data set deals with human monocyte U937. As to the kind of experiment: Polarization of IL4-treated human monocyte U937 (immunofluorescence). It counts as cell-based. The settings on record: U937, IL-4 20 ng/ml 48 hours then 10 ug/ml 48 hours. The protocol: Raji lymphoma cells (ATCC), U937 human monocyte cells (ATCC) and YTS NK cells (a gift from Dr. Pamela A. Becker) were cultured at 37° C. in a humidified incubator under 5% CO2 and 95% air in RPMI-1640 supplemented with 20% FCS and 1% penicillin-streptomycin, and 1% nonessential amino acids.
as §1
Immunofluorescence for analysis of macrophage polarization in cell culture experiments: Live cells were fixed in 10% formalin for 30 minutes at room temperature followed by permeabilization with PBS-0.2% Triton X-100 for 2 min. […]

Where [5] appears, read: listed as 4-amino-2-(2,6-dioxo-piperidine-3-yl)-isoindoline-1,3-dione.

As a reminder, the AUC(0-inf) is the area under the concentration-time curve extrapolated to infinity. For orientation: Vss means the apparent volume that relates the amount in the body to the concentration in plasma or blood. As a reminder, the Cmax is the peak of the concentration-time curve. Usually Tmax stands for the time at which the peak concentration occurs. For `Nc1cccc2c1C(=O)N(C1CCC(=O)NC1=O)C2=O` (stereo not shown) [Pomalidomide, 4-amino-2-(2,6-dioxo-piperidine-3-yl)-isoindoline-1,3-dione], in data set [1], the F is recorded as 47.4%. Further, the F in data set [1] (listed as CC-4047) is 47.4 ± 15.2%. Also, in data set [1] (single IV 5 mg/kg, n = 5), the “AUC(0-inf)” value was 7.016 ± 1.551 µg·h/mL, the CL was 0.738 L/h/kg, the T1/2 is 2.44 ± 0.8 h and the Vss is given as 1.75 L/kg. For the same compound, in data set [1] (single PO 50 mg/kg, n = 4), the “AUC(0-24)” value is 33.155 ± 8.561 µg·h/mL, the Cmax is 3.372 ± 0.758 µg/mL and the Tmax is 2.0 ± 0.0 h. In addition, in data set [2], the phagocytic activity result is given as “significantly increased”. In addition, in data set [3], the “M2 polarization of microglia cells (FXIIIA, pSTAT6)” value (from here on “M2 polarization of microglia cells”) is on record as “reversed” and the “polarization status of microglia cells (iNOS, pSTAT1)” value (shortened to “polarization status … (iNOS, pSTAT1)”) is on record as “from M2 to M1”. In addition, in data set [3] (setting [5]), the “M2 polarization of microglia cells” value was “M2 polarization was not seen” and the “polarization status … (iNOS, pSTAT1)” value is given as “became M1-polarized”. Besides, in data set [4], the “M2 polarization of microglia cells” value was “reversed” and the “polarization status … (iNOS, pSTAT1)” value was “from M2 to M1”. In addition, in data set [4] (setting [5]), the “M2 polarization of microglia cells” value was “M2 polarization was not seen” and the “polarization status … (iNOS, pSTAT1)” value is “became M1-polarized”. Further, the “polarization status (FXIII A, pSTAT6 vs iNOS, pSTAT1 expression)” value in the data set with human monocyte U937 is “from M2 to M1”.
